Test results as given in patent US9868763B2, “Modulators of protease activated receptors” (The University of Queensland, priority 2011, dated 2018).
pIC50: −log10 of the molar value. Blank lines part the entries; values can stand above or below the compound they belong to.

How the values were obtained:
PAR2 [1] = target: T1, PAR2 (Homo sapiens, UniProt P55085); settings: cited from earlier work
T1 sequence (P55085 26-397): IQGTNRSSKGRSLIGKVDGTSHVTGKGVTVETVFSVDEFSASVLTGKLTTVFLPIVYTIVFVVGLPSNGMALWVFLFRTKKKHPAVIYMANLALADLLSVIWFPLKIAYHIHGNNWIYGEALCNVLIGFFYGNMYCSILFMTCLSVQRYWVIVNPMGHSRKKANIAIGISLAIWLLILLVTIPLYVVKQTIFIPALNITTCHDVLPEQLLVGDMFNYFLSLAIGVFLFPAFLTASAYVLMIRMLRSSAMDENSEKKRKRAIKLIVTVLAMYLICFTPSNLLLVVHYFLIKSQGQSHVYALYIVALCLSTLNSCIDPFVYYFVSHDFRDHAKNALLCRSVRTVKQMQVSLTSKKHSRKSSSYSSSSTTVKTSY

[2] = Stability in rat liver homogenate; type: in vitro ADME, Wistar rat; settings: 37 °C, up to 180 min
Method: Blood and liver is collected form non-drug dosed male and female Wistar rats (aged 8-9 weeks, 200-250 g and 250-300 g respectively). Bloods are centrifuged at 8 K rpm for 5 min. Plasma are pooled and stored at −80° C. for later use. The rat livers are homogenized, diluted with three volumes of PBS, cloth filtered. The filtrate is used directly for stability studies.
Each compound is dissolved in DMSO to make 5 mM stock solution. 10 μL of the stock is diluted with either rat plasma or liver homogenate (490 μL) to make up a starting concentration of […] (triplicates). The mixtures are vortexed and incubated at 37° C. At each time point of 0, 30, 60 and 180 minutes, 100 μL of the mixture is taken and diluted with 300 μL of acetonitrile. The mixture is vortexed and centrifuged. 350 μL of the liquid is transferred into a microfuge tube and concentrated using a rotational vacuum concentrator (Christ Beta-RVC, supplied by Quantum Scientific). 100 μL of acetonitrile-water (9:1, v/v) is added to the residue, vortexed and immediately analysed by LCMS/MS. Data from these experiments are expressed as percent of peak area recorded from the LCMS/MS trace at time zero (t0).

[3] = tested on: 2furoyl-LIGRLO-NH2-induced paw oedema; test: PAR2 agonist-induced paw oedema; type: in vivo, Wistar rat; settings: 10 mg/kg p.o. in olive oil, agonist 350 μg/paw 2 h after oral dose
Method: The methods used are based on those previously described (Kelso, E. B., et al. Arthritis Rheum 2007, 56, 765-71; Kelso, E. B., et al. J Pharmacol Exp Ther 2006, 316, 1017-24; and Vergnolle, N. J Immunol 1999, 163, 5064-9). Male Wistar rats (n=3 per group) are used. Briefly, rats are given either 5 or 10 mg/kg of a compound of the present invention (p.o. via gavage in olive oil, approx. 500 μL, weight adjusted). Control animals receive only olive oil (500 μL p.o.). Two hours later, the PAR2 agonist 2-furoyl-LIGRLO (350 μg/paw in saline, 100 μL) is injected into the plantar surface (i.pl.) of the right paw pad using a 30 G needle. The left paw acts as a control, receiving saline only. Paw thickness and width are measured after 30 minutes and hourly using digital calipers (World Precision Instruments, USA) and swelling is calculated in area (mm^2; thickness multiplied by width) and expressed as a percentage change from baseline of each individual paw.
Based on previous methods (Kelso E B et al., J Pharmacol Exp Ther 2006, 316(3):1017-24; Suen J Y et al., Br J Pharmacol 2011, doi: 10.1111/j.1476-5381.2011.01610.x.), PAR2 antagonist 52 (10 mg/kg s.c.; n=4), ENMD-1068 (100 mg/kg s.c.; n=4) or vehicle control (DMSO s.c.; n=2) were administered to male Wistar rats. Baseline paw thickness and width were measured using digital calipers (World Precision Instruments, USA) expressed in area (mm^2; thickness×width). Fifteen minutes later, 2Furoyl-LIGLRO-NH2 (350 μg/paw in 100 μL saline) was injected into of the right hind paw pad (intraplantar, i.pl.). The left hind paw acted as a control, receiving saline only. In a separate experiment, vehicle (500 μL olive oil) versus PAR2 antagonist 52 (10 mg/kg p.o. in 500 μL olive oil) only were administered orally to two groups of rats (4 per group). Two hours later, β-tryptase (human recombinant lung, 20 μg in 100 μL saline) was injected into the right hind paw pad (vehicle in left for control) of all animals in each group. In all experiments, paw swelling was measured and expressed in area (mm^2; thickness×width) and plotted as % change from baseline of each individual paw.

PAR2 [4] = target: T1, PAR2; test: PAR2 agonist inhibition (antagonism): intracellular Ca2+ release in HT29 cells; type: cell-based; parameters: endogenous in cells; host or cells: HT29 (human colorectal adenocarcinoma); settings: other ligands; inhibiting Ca2+ release in HT29 cells; 30 min pre-incubation, agonist at EC80
Method: Cells are seeded overnight in 96-well black walled, clear bottomed, plate at approximately 2×10^4 to 4×10^5 cells per well. […] The cells are then washed twice with HBSS and transferred to a Polarstar spectrofluorimeter (BMG, Durham N.C.).
The cells are prepared as outlined above then treated with the ‘putative’ antagonist 30 min prior to the addition of either trypsin or a synthetic agonist at a concentration equal to the agonists EC80.
The cells were then treated with 1 μM of the PAR2 agonist 2f-LIGRLO-NH2 (FIG. 2A, n=5) or 100 nM Trypsin (FIG. 2B, n=1). Each data point represents mean±SEM. Net changes in fluorescence were calculated as a percentage relative to the maximum response given 1 μM 2f-LIGRLO-NH2 or 100 nM Trypsin. Changes in fluorescence (% response) were plotted against logarithmic compound concentrations. The half maximal inhibitory concentration (IC50) values were derived from the dose response curve using a nonlinear regression curve in Graphpad Prism v5.

[5] = tested on: TNBS-induced chronic colitis; test: TNBS-induced chronic colitis model; type: in vivo, rat; settings: 52 10 mg/kg/day, sulfasalazine 100 mg/kg/day p.o.
Method: On day 0, rats were weighed, given respective treatments of either sulfasalazine (100 mg/kg in olive oil p.o.), compound 52 (10 mg/kg in olive oil), or vehicle (500 l olive oil p.o.), and fasted for 24 h with water supplied ad libitum. The next day (day 1), rats were weighed, dosed with respective compound, and anesthetized with isofluorane. A polyethylene catheter was inserted intrarectally (8 cm). Control and drug-treated animals received an intracolonic dose of TNBS (80 mg/kg in saline and 250 l, 50% ethanol in water) (Fiorucci at al., 2001). Sham animals received vehicle only, with TNBS replaced by equivolume water. Rats were maintained in an inclined position (40°) for 30 min, then allowed to recover with food and water supplied. Rats were dosed daily with the respective compound, weighed, and scored for general health and disease progression. All rats were sacrificed on day 8 of experimentation unless they were sacrificed earlier. Disease progression and post-mortem colonic histopathology was scored by the following methods. PAR2 and tryptase co-localization were investigated by using immunohistochemistry.
DAI for both acute and chronic models was assessed and scored by an expert blinded to treatments. Scores incorporated mobility, gastrointestinal pathology, discomfort, and generalized sickness behaviour criteria (each scored 0-3). Any animal that reached stage 3 in any criteria was euthanized by CO2 inhalation and recorded as a disease-related mortality. Scores were summed and expressed as total disease score (maximum 12). DAI was measured at endpoint only (10 h) in the acute study and daily in the chronic TNBS study.
Colons were dissected post-mortem and given a macroscopic disease score based on that described previously (Bobin-Dubigeon et al., 2001) with some minor alterations (maximal score 14). The entire colon length was removed between the ileocolic and colorectal junction. Length and maximal distension width were measured. Sections of affected colon were taken for biochemical analysis, histology, and wet/dry weight.

PAR2 [6] = target: T2, PAR2 (Mus musculus, UniProt P55086); test: Intracellular calcium mobilization in MIN6 beta cells; type: cell-based; settings: concentration-dependent
T2 construct: endogenous in cells; host or cells: MIN6 (mouse pancreatic beta cell line)
T2 sequence (P55086 26-399): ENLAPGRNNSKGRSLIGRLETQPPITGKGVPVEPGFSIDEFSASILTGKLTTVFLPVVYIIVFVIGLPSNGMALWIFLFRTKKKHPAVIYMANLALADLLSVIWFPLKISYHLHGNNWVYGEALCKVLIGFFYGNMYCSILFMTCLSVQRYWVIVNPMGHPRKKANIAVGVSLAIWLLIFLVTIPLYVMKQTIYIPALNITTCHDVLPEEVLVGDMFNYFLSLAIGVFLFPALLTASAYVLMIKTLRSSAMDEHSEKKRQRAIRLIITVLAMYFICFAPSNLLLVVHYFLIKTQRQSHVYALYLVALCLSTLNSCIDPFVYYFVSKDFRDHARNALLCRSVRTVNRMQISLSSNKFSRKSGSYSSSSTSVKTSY
Method: Results: Pathogenesis of pancreatic dysfunction is linked to chronic nutritional surplus and elevated fatty acids, so in vivo and in vitro effects of compound 52 were evaluated on rat pancreas and mouse MIN6 beta cells. […] PAR2 agonists and compound 52 were further evaluated in vitro for glucose-stimulated insulin secretion (GSIS) and intracellular calcium mobilization in mouse MIN6 beta cells.

Compound: 2-furoyl-LIGRL-NH2
agonist potency higher than SLIGRL-NH2 (PAR2 [1]): ~20 fold
selectivity among PARs (PAR2 [1]): selective for PAR2 over PAR1 and PAR4

Compound: CC[C@H](C)[C@H](NC(=O)[C@H](CC1CCCCC1)NC(=O)c1ccno1)C(=O)N1CCC(c2ccccc2)CC1 [Compound 30, 5-isoxazoyl-Cha-Ile-(4-phenyl)piperidine]
stability in rat liver homogenate [2]: decomposed to varied degree
paw swelling induced by 2-f-LIGRLO-NH2 [3]: reduced the paw swelling

Compound: CC[C@H](C)[C@@H](NC(=O)[C@H](CC1CCCCC1)NC(=O)c1cc(N)no1)C(=O)N1CCC2(C=Cc3ccccc32)CC1 [Compound 42, 5-(3-amino-isoxazoyl)-Cha-Ile-spiro[indene-1,4′-piperidine]]
stability in rat liver homogenate [2]: decomposed to varied degree
paw swelling induced by 2-f-LIGRLO-NH2 [3]: reduced the paw swelling

Compound: CO[C@H](C)[C@@H](NC(=O)[C@H](CC1CCCCC1)NC(=O)c1ccno1)C(=O)N1CCC2(C=Cc3ccccc32)CC1 [Compound 44, 5-isoxazoyl-Cha-Thr(Me)-spiro[indene-1,4′-piperidine]]
stability in rat liver homogenate [2]: decomposed to varied degree
paw swelling induced by 2-f-LIGRLO-NH2 [3]: reduced the paw swelling

Compound: CC[C@H](C)[C@@H](NC(=O)[C@H](CC1CCCCC1)NC(=O)c1c[nH]cn1)C(=O)N1CCC2(C=Cc3ccccc32)CC1 [Compound 47]
pIC50 (PAR2 [4]): 5.00

Compound: CC[C@H](C)[C@@H](NC(=O)[C@H](CC1CCCCC1)NC(=O)C1CCC(=O)N1)C(=O)N1CCC2(C=Cc3ccccc32)CC1 (some centres unmarked) [Compound 49]
pIC50 (PAR2 [4]): 4.60

Compound: CC[C@H](C)[C@@H](NC(=O)[C@H](CC1CCCCC1)NC(=O)c1ccno1)C(=O)N1CCC2(CCc3ccccc32)CC1 [Compound 53]
pIC50 (PAR2 [4]): 5.52

Compound: O=C(O)c1cc(/N=N/c2ccc(S(=O)(=O)Nc3ccccn3)cc2)ccc1O [sulfasalazine, reference compound]
TNBS-mediated mortality [5]: 33.3%
DAI compared with TNBS-controls ([5]; from day 2 onward): marked improvements in DAI

Compound: trypsin
intracellular calcium release in MIN6 beta cells (PAR2 [6]): activated intracellular calcium release

Continued, in another order:

stability in rat liver homogenate [2]: decomposed to varied degree
Compound: CC[C@H](C)[C@H](NC(=O)[C@H](CC1CCCCC1)NC(=O)c1ccno1)C(=O)NCc1ccccc1OC [Compound 18, 5-isoxazoyl-Cha-Ile-aminomethyl-(2-methoxy)phenyl]
paw swelling induced by 2-f-LIGRLO-NH2 [3]: reduced the paw swelling

pIC50 (PAR2 [4]): 4.77
Compound: CC[C@H](C)[C@@H](NC(=O)[C@@H](N)CC1CCCCC1)C(=O)N1CCC2(C=Cc3ccccc32)CC1 [Compound 41]

pIC50 (PAR2 [4]): 4.82
Compound: CC[C@H](C)[C@@H](NC(=O)[C@H](CC1CCCCC1)NC(=O)c1nc[nH]n1)C(=O)N1CCC2(C=Cc3ccccc32)CC1 [Compound 45]

pIC50 (PAR2 [4]): 4.60
Compound: CC[C@H](C)[C@@H](NC(=O)[C@H](CC1CCCCC1)NC(=O)c1cc(C)on1)C(=O)N1CCC2(C=Cc3ccccc32)CC1 [Compound 46]

pIC50 (PAR2 [4]): 4.30
Compound: CC[C@H](C)[C@@H](NC(=O)[C@H](CC1CCCCC1)NC(=O)C1CCNCC1)C(=O)N1CCC2(C=Cc3ccccc32)CC1 [Compound 48]

pIC50 (PAR2 [4]): 4.30
Compound: CC[C@H](C)[C@@H](NC(=O)[C@H](CC1CCCCC1)NC(=O)C1CCCN1)C(=O)N1CCC2(C=Cc3ccccc32)CC1 (some centres unmarked) [Compound 50]

pIC50 (PAR2 [4]): 5.00 to 5.30
Compound: CC[C@H](C)[C@H](C(=O)N1CCC2(C=Cc3ccccc32)CC1)N(C)C(=O)[C@@H](N)CC1CCCCC1 [Compound 51]

intracellular calcium release in MIN6 beta cells (PAR2 [6]): activated intracellular calcium release
Compound: SLIGRL-NH2
